Reference: patent publication US20060229258A1, “Steroidal compositions containing hydroxycarboxylic acids and methods of using the same” (priority 2003, published 2006)

Assay: Thermal degradation of prednicarbate during preparation of the emulsion
Type: physicochemical
Settings: in the emulsion during preparation
Method: In a particularly key aspect of the present inventive process, the emulsion is cooled from a temperature of about 55 to about 85° C. to a temperature of about 25 to about 45° C. before the prednicarbate is dispersed therein. This cooling step is particularly important because a substantial amount of prednicarbate degradation products will form at temperatures above 63° C. Accordingly, it is necessary to cool the emulsion before adding the prednicarbate to maintain the high prednicarbate purity and low amount of prednicarbate degradation products essential to the present inventive compositions.

temperatures at which a substantial amount of prednicarbate degradation products will form: above 63 °C
Compound: CCOC(=O)O[C@]1(C(=O)COC(=O)CC)CC[C@H]2[C@@H]3CCC4=CC(=O)C=C[C@]4(C)[C@H]3[C@@H](O)C[C@@]21C [prednicarbate]
